assay: PK parameters of prodrugs after oral gavage to rats (plasma levels of prodrug and active metabolite by LC/MS/MS); format: in vivo; conditions: orally by gavage, 3 mg/kg, 0.5% MC/0.5% Tween 80/99% water, plasma up to 24 hrs post dose, FIGS. 3-5
Experimental: The prodrug whose PK parameters are to be determined can be formulated as a solution in 0.5% MC/0.5% Tween 80/99% water and administered orally by gavage to rats at a dose of 3 mg/kg. Rats are weighed the day before the study. Rat plasma is sampled predose and at 15, 30 min, 1, 2, 3, 4, 6, 8, 12 and 24 hrs post dose using Instech automatic blood sampling equipment. Blood is collected in tubes containing K2-EDTA and 110 uL plasma are extracted for analysis. Rats are fed ad lib and standard IACUC and SOP protocols are followed. Plasma samples and dose samples are analyzed using LC/MS/MS for both the prodrug compound and the active metabolite. PK parameters for both analytes for each subject are calculated using the measured dose of prodrug. The PK parameters of a prodrug of the invention (compound 10) was measured as described in the preceding paragraph, and are depicted in FIG. 3.

SMILES | in vivo conversion of prodrug into active metabolite
C[C@@H](N)C(=O)O[C@H]1CC[C@H](N(c2cc(C#CC(C)(C)C)sc2C(=O)O)C(=O)[C@H]2CC[C@H](C)CC2)CC1 [Compound 10] | in vivo converted into the —OH active metabolite
CC(C)[C@H](N)C(=O)O[C@H]1CC[C@H](N(c2cc(C#CC(C)(C)C)sc2C(=O)O)C(=O)[C@H]2CC[C@H](C)CC2)CC1 [Compound 1] | in vivo converted into their active metabolites
CC(C)C#Cc1cc(N(C(=O)[C@H]2CC[C@H](C)CC2)[C@H]2CC[C@H](OC(=O)[C@H](C)N)CC2)c(C(=O)O)s1 [Compound 11] | in vivo converted into their active metabolites
